This is an account of results in ChEMBL document CHEMBL4402526, “Design and Synthesis of Fungal-Selective Resorcylate Aminopyrazole Hsp90 Inhibitors” (J Med Chem, 2020).

A short description of series [1]: Selectivity index, ratio of kd for binding affinity to recombinant human Hsp90 NBD expressed in Escherichia coli Rosetta2 to Kd for binding affinity to recombinant Candida albicans clinical isolate 2 HSP90 NBD (E7 to K218 residues) expressed in Escherichia coli Rosetta2.
The nature of series [2]: Microsomal stability in CD-1 mouse liver microsomes assessed as parent compound remaining at 1 uM measured at 60 mins by LC-MS/MS analysis. Format: ADME, Microsome. As to conditions: read-out: Stability. On the technique in general: Liver microsomes are a subcellular fraction often used to study metabolism.
A short description of series [3]: Half life in CD-1 mouse liver microsomes at 1 uM measured up to 120 mins by LC-MS/MS analysis.
In series [4] the test system is Candida albicans. As to the kind of experiment: Antifungal activity against Candida albicans clinical isolate 2 assessed as fungal growth inhibition at <= […] uM measured after 48 hrs by resazurin assay. Type of series: functional, organism-based. Background: Alamar Blue is a resazurin reagent that responds to reducing activity.
Series [5] has as its system Cryptococcus neoformans. As to the kind of experiment: Antifungal activity against Cryptococcus neoformans H99 assessed as fungal growth inhibition at <= […] uM measured after 48 hrs by resazurin assay. Format: functional, organism-based.
Series [6] relates to Candida albicans. Kind of series: Antifungal activity against Candida albicans clinical isolate 2 assessed as fungal growth inhibition measured after 48 hrs in presence of fluconazole by resazurin assay. As to conditions: clinical isolate 2, 48 h. Format: functional.
The subject of series [7] is Candida albicans. As to the kind of experiment: Fungicidal activity against Candida albicans clinical isolate 2 incubated for 48 hrs in presence of fluconazole followed by replating on YDP agar plate and measured after 24 hrs. Format: functional, organism-based.
Series [8] in a line: Displacement of Cy3-labeled geldanamycin from HSP90 in Candida albicans clinical isolate 2 cell lysate measured after […] by fluorescence polarization assay. Format: subcellular.
Series [9] concerns Cryptococcus neoformans. Kind of series: Antifungal activity against Cryptococcus neoformans H99 assessed as fungal growth inhibition at < […] uM measured after 48 hrs by resazurin assay. Format: functional, organism-based.

The source made the active and inactive calls. Bounds are passed on as bounds.

As to `COc1ccc(CO\N=C2/C=C/C=C\[C@H]3O[C@@H]3C[C@@H](C)OC(=O)c3c(O)cc(O)cc3C2)cc1`, the Selectivity Index in series [1] was more than 25.

Regarding `CC(C)c1ccc(Cn2nccc2Nc2cc(O)cc(O)c2C(=O)N2Cc3ccccc3C2)cc1`, the remaining at 1 h, 1 µM in series [2] turned out to be 1.8%. Besides, the half-life at 2 h, 1 µM in [3] was determined as 3.1 min. Also, the outcome with Candida albicans [4] and in the series with Cryptococcus neoformans [5] was Active.

On to `Cn1nc(-c2ccc(OC(F)(F)F)cc2)cc1Nc1cc(O)cc(O)c1C(=O)N1Cc2ccccc2C1`, for which the outcome in the series on Candida albicans [4] and in the series on Cryptococcus neoformans [5] was Active. Besides, the MIC with Candida albicans [6] came out at 12.5 µM.

Turning to `COc1ccc(Cn2ncc(C)c2Nc2cc(O)cc(O)c2C(=O)N2Cc3ccccc3C2)cc1`, the outcome in the series on Candida albicans [7], with Candida albicans [4] and in the series with Cryptococcus neoformans [5] was Active.

For the compound `COc1ccc(Cn2nc(C)cc2Nc2cc(O)cc(O)c2C(=O)N(C)CC2CC2)cc1`, the outcome in the series with Candida albicans [4] and in the series with Cryptococcus neoformans [5] was Active. The EC50 in [8] was more than 9 µM.

For `Cn1nc(C2CCCCC2)cc1Nc1cc(O)cc(O)c1C(=O)N1Cc2cn[nH]c2C1`, the remaining at 1 h, 1 µM in series [2] was found to be 0.06%. Further, the half-life at 2 h, 1 µM in series [3] was determined as 2.74 min. In addition, the outcome in the series with Candida albicans [4] and with Cryptococcus neoformans [5] was Active.

As to `COc1cccc(-c2cc(Nc3cc(O)cc(O)c3C(=O)N3Cc4cccnc4C3)n(C)n2)c1`, the remaining at 1 h, 1 µM in series [2] was 0%. In series [3], this compound showed a half-life at 2 h, 1 µM of 3.44 min. Moreover, the outcome in the series on Candida albicans [4] and with Cryptococcus neoformans [5] was Active.

Regarding `CCN(CC)C(=O)c1c(O)cc(O)cc1Nc1cc(-c2ccccc2)nn1Cc1ccc(OC)cc1`, the outcome with Candida albicans [4] and in the series with Cryptococcus neoformans [5] was Active. In addition, in series [8], the EC50 was more than 10 µM.

On to `COc1ccc(Cn2nc(-c3ccccc3)cc2Nc2cc(O)cc(O)c2C(=O)N(C)CC2CC2)cc1`, for which the result with Candida albicans [4] and with Cryptococcus neoformans [5] was Active. Further, the EC50 in [8] was more than 9 µM.

Consider `Cc1ccccc1-c1cc(Nc2cc(O)cc(O)c2C(=O)N2Cc3ccccc3C2)n(C)n1`, for which the result with Candida albicans [4], in the series with Cryptococcus neoformans [5] and with Cryptococcus neoformans [9] was Active.

Take `Cc1cccc(-c2cc(Nc3cc(O)cc(O)c3C(=O)N3Cc4cn[nH]c4C3)n(C)n2)c1`: the remaining at 1 h, 1 µM in series [2] turned out to be 1.8%. Further, in series [3], the half-life at 2 h, 1 µM was 9.38 min. Also, the outcome with Candida albicans [4] and in the series on Cryptococcus neoformans [5] was Active.

Take `COc1ccc(Cn2nc(C)cc2Nc2cc(O)cc(O)c2C(=O)N(C)Cc2ccccc2)cc1`: the result with Candida albicans [4] and in the series with Cryptococcus neoformans [5] was Active. Moreover, the EC50 in series [8] was more than 6 µM.

`Cn1nc(-c2ccc(C(C)(C)C)cc2)cc1Nc1cc(O)cc(O)c1C(=O)N1Cc2cn[nH]c2C1`: the remaining at 1 h, 1 µM in series [2] turned out to be 0.5%. Besides, the half-life at 2 h, 1 µM in [3] stood at 6.44 min. Besides, the outcome in the series on Candida albicans [4] and with Cryptococcus neoformans [5] was Active.

Consider `COc1cccc(-c2cc(Nc3cc(O)cc(O)c3C(=O)N3Cc4ccccc4C3)n(C)n2)c1`, for which the remaining at 1 h, 1 µM in [2] was 0%. For the same compound, in series [3], the half-life at 2 h, 1 µM is 3.15 min. The result in the series with Candida albicans [4] and in the series on Cryptococcus neoformans [5] was Active.

With `COc1ccc(Cn2nc(-c3ccccc3)cc2Nc2cc(O)cc(O)c2C(=O)N2Cc3ccccc3C2)cc1`, the outcome in the series with Candida albicans [7], in the series on Candida albicans [4] and in the series with Cryptococcus neoformans [5] was Active.

Regarding `Cc1cc(Nc2cc(O)cc(O)c2C(=O)N2Cc3ccccc3C2)n(Cc2ccccc2Cl)n1`, the result in the series on Candida albicans [7], with Candida albicans [4] and in the series with Cryptococcus neoformans [5] was Active.

By half-life is commonly meant the time needed for the level to fall by half in the phase considered. In general, MIC refers to the lowest concentration found to suppress growth. The EC50 is the concentration that produces a half-maximal response. Higher therefore signals a less potent agent.
